Assay results taken from the CheMixHub viscosity set.
± gives the uncertainty stated by the source.

Assay: xn = mol fraction of the nth substance listed
Settings: 101 kPa

OCCCCO + CS(C)=O
viscosity [mPa·s]
Settings	293.15 K	298.15 K	303.15 K	308.15 K	313.15 K	318.15 K
x1 = 0.0436	2.61 ± 0.05	2.25 ± 0.05	2.06 ± 0.04	1.81 ± 0.04	1.67 ± 0.04	1.55 ± 0.03
x1 = 0.0879	3 ± 0.06	2.59 ± 0.05	2.35 ± 0.05	2.06 ± 0.04	1.89 ± 0.04	1.74 ± 0.04
x1 = 0.1327	3.46 ± 0.07	2.97 ± 0.06	2.68 ± 0.06	2.34 ± 0.05	2.13 ± 0.04	1.96 ± 0.04
x1 = 0.1781	4.01 ± 0.08	3.4 ± 0.07	3.06 ± 0.06	2.66 ± 0.06	2.41 ± 0.05	2.21 ± 0.05
x1 = 0.2242	4.66 ± 0.1	3.92 ± 0.08	3.51 ± 0.07	3.05 ± 0.06	2.73 ± 0.06	2.53 ± 0.05
x1 = 0.2709	5.43 ± 0.11	4.53 ± 0.09	4.05 ± 0.08	3.49 ± 0.07	3.13 ± 0.07	–
x1 = 0.3183	6.36 ± 0.13	5.27 ± 0.11	4.7 ± 0.1	4 ± 0.08	3.55 ± 0.07	–
x1 = 0.3663	7.51 ± 0.16	6.19 ± 0.13	5.47 ± 0.11	4.63 ± 0.1	4.08 ± 0.08	–
x1 = 0.415	8.85 ± 0.18	7.3 ± 0.15	6.4 ± 0.13	5.38 ± 0.11	4.7 ± 0.1	–
x1 = 0.4644	10.5 ± 0.2	8.6 ± 0.18	7.5 ± 0.15	6.3 ± 0.13	5.47 ± 0.11	–
x1 = 0.5145	12.7 ± 0.3	10.3 ± 0.2	8.9 ± 0.18	7.4 ± 0.15	6.4 ± 0.13	–
x1 = 0.5653	15.4 ± 0.3	12.4 ± 0.3	10.6 ± 0.2	8.8 ± 0.18	7.5 ± 0.15	–
x1 = 0.6169	18.9 ± 0.4	15 ± 0.3	12.8 ± 0.3	10.5 ± 0.2	8.9 ± 0.18	–
x1 = 0.6692	23.4 ± 0.5	18.5 ± 0.4	15.6 ± 0.3	12.7 ± 0.3	10.7 ± 0.2	–
x1 = 0.7223	29.2 ± 0.6	22.9 ± 0.5	19.1 ± 0.4	15.4 ± 0.3	12.9 ± 0.3	–
x1 = 0.7762	36.7 ± 0.8	28.4 ± 0.6	23.5 ± 0.5	18.9 ± 0.4	15.6 ± 0.3	–
x1 = 0.8309	46.5 ± 1	35.7 ± 0.7	29.3 ± 0.6	23.2 ± 0.5	19 ± 0.4	–
x1 = 0.8864	59.2 ± 1.2	44.8 ± 0.9	36.4 ± 0.7	28.6 ± 0.6	23.3 ± 0.5	–
x1 = 0.9428	75.2 ± 1.6	56.4 ± 1.1	45.4 ± 0.9	35.5 ± 0.7	28.7 ± 0.6	–
